The structures appear in SMILES notation.

The text below walks through data of patent US20050089535A1, “Delivery of biologically active agents” (priority 2002, published 2005).

The series can be described thus: Use of the Weston needleless injector to evaluate penetration of the cervix (dye track). Also on record: species or system human. Conditions: 0.2 ml of 1 mg/ml methylene blue in phosphate buffered saline, Weston needleless injector held against ectocervix, ex vivo cervix from non-pregnant women. On the procedure: A Weston needleless injector was loaded with 0.2 ml of dye (1 mg/ml of methylene blue {Sigma} in phosphate buffered saline). Whole human cervix was obtained at hysterectomy from non-pregnant women of reproductive age. The cervix was tested within 30 minutes of removal from the patient. The needleless injector device was held against the ectocervix region. Increased pressure on the needleless injector activated the device. Two injections were performed for each specimen.
The cervix was dissected along the track of the injection (FIG. 2) and the length of the dye track was measured. In four experiments the length of the track was a mean of 6.1 mm (standard error of the mean=1.9 mm). The mean lateral spread (any signs of the blue dye) was 8.8 mm.

As to `CN(C)c1ccc2nc3ccc(=[N+](C)C)cc-3sc2c1` [dye, methylene blue], the “mean lateral spread (any signs of the blue dye)” value is recorded as 8.8 mm. Also, where the note is “four experiments, SEM 1.9 mm”, the “length of the dye track (mean)” value is 6.1 mm.
